In PubChem BioAssay AID1226 (NMMLSC, 2008):
Results filed as inconclusive are left out. Active and inactive are the calls of the source.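 The calls were made as follows: active = score of 100, fluorescent reporter fully moved to nucleus as with estrogen, or estrogen effect fully blocked; inactive = score of 0 or 50, partial or no effect.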

Each compound was assayed against Estrogen receptor (Homo sapiens) (UniProt P03372) (assay: ERalpha-driven PIP3 reporter nuclear translocation, orthogonal assay for ERalpha ligand project, imaging, Cos7 ERalpha-GFP, PH-RFP reporter (AID 1226)). Details: at 10 µM, hits give high values.
Sequence of Estrogen receptor (Homo sapiens) (P03372 whole entry, looked up): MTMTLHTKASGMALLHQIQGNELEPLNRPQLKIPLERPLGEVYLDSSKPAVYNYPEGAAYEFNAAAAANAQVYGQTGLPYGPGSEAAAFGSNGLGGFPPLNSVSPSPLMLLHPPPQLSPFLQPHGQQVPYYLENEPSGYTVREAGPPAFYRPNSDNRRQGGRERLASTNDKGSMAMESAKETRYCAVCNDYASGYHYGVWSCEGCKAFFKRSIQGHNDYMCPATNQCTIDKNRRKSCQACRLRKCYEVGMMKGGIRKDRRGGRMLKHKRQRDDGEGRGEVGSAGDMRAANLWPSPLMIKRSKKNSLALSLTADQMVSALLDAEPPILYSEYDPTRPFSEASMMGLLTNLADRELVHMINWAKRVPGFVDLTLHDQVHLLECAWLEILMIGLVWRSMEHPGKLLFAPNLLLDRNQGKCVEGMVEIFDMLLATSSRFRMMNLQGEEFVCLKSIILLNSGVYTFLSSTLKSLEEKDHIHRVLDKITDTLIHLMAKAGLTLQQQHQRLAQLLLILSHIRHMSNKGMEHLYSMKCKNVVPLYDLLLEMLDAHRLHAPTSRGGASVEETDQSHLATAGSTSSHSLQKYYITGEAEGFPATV

Compound	translocation response score
O=C(O)c1ccc2c(c1)C1C(Cl)C(Sc3ccccc3[N+](=O)[O-])CC1C(c1cccc([N+](=O)[O-])c1)N2 (stereo not drawn)	0 (inactive)
O=C(O)c1cc(Cl)c2c(c1)[C@@H]1C=CC[C@@H]1[C@H](c1ccc(S(=O)(=O)N3CCOCC3)cc1)N2	50 (inactive)
Cc1cc(C)c2c(c1)[C@@H]1C=CC[C@@H]1[C@H](c1ccc(S(=O)(=O)N3CCOCC3)cc1)N2	100
Nc1ncnc2c1ncn2C1CCC(CO)C(O)C1 (stereo not drawn)	100
COc1cccc(NS(=O)(=O)c2ccc3c(c2)C2C=CCC2C(c2ccc(C(=O)O)cc2)N3)c1 (stereo not drawn)	50 (inactive)
Cc1cc(-c2nn3c(-c4ccccc4)nnc3s2)c2ccccc2n1	100
Brc1cc2c(cc1C1Nc3ccccc3C3C=CCC31)OCO2 (stereo not drawn)	0 (inactive)
COc1ccccc1N1CCN(C(=O)c2ccc3nc(-c4ccco4)c(-c4ccco4)nc3c2)CC1	50 (inactive)
